The values below come from US8263754B2, “Amphiphiles for protein solubilization and stabilization” (Wisconsin Alumni Research Foundation, priority 2008, dated 2012).

The conditions of data set [1]: cited from earlier work; for Buffer Range: pH range.
The nature of data set [2]: Critical micelle concentration (CMC) by dye solubilization (Orange OT or DPH). Format: physicochemical. The following applies: for critical micelle concentration (CMC): aqueous solubilization of Orange OT; for CMC / CMC (%): determined by DPH (diphenylhexatriene) or Orange OT. The text has this:
Aqueous solubilization of Orange OT was used to determine critical micelle concentrations (CMC). […] Facile self-association of these amphiphiles under these conditions may be hindered by the hydrophilicity and/or steric bulk of the triglucoside and dimaltoside headgroups.
The Critical Micelle Concentrations (CMCs) of compounds of the invention can be determined by standard techniques known to those of skill in the art. For example, CMCs of the carbohydrate-based amphiphiles described herein can be determined by monitoring uptake of a dye (e.g., Orange OT or 1,6-diphenylhexatriene) with increasing detergent concentration, monitored by UV-visible or fluorescence spectroscopy.

The subject of data set [3] is LHI-RC superassembly in Rhodobacter capsulatus membranes. The following applies: for extraction of LHI-RC superassembly from R. capsulatus membranes: solubilized protein, optical spectroscopy; for Level (S/P solubilization rank and detergent strength): detergent at 10x CMC, 30 minutes at 32° C. The text has this: These complexes, normally embedded in the bacterial membrane, are highly pigmented and several outcomes from an assay are possible, including no degradation, partial degradation or complete degradation upon solubilization, or no solubilization. Thus, graded comparative evaluations could be obtained for a set of candidates such as the amphiphiles described herein.
In the engineered strain of R. capsulatus employed, the photosynthetic unit was comprised of a very labile LHI complex and a more resilient RC complex. An ideal amphiphile for this system will extract the intact LHI-RC superassembly from a bacterial membrane preparation and maintain the natural interactions among the components. Amphiphiles with a more disruptive effect will dissociate and denature LHI, leaving only intact RC, and even harsher amphiphiles will cause RC degradation. Each of these various outcomes can be assessed unambiguously via optical spectroscopy (FIG. 2 inset).
Measurements. The starting material for the screening protocols and stability measurements included specialized photosynthetic membranes from an engineered strain of Rhodobacter (R.) capsulatus, U43[pUHTM86Bgl]
To begin the solubilization and purification process, frozen aliquots of R. capsulatus membranes were thawed, homogenized, and equilibrated to 32° C. for 30 minutes. […] For subsequent experiments, the amphiphiles were evaluated at 10-fold CMC during the solubilization step.
The membrane samples were allowed to incubate with the amphiphile for 30 minutes at 32° C. The solubilized material was then separated from the membrane debris in an ultracentrifuge at 315,000×g at 4° C. for 30 minutes. […] After a UV-Vis-nearIR absorption spectrum was recorded, the resuspended pellet was discarded. […] The tubes were then incubated and inverted for 1 hour at 4° C.
Once binding was complete, samples were loaded onto resin-retaining spin columns (e.g., emptied His Spin Trap™ columns; GE Healthcare). The columns were then inserted into a 2 mL microcentrifuge tube to retain the filtered solution during centrifugation. […] Finally, protein was eluted into a fresh microcentrifuge tube with three 0.2 mL elution buffer aliquots (this buffer was identical to binding buffer with the addition of 1 M imidazole).
The R. capsulatus LHI-RC complexes extracted and purified by this procedure contain large numbers of cofactors that have absorptions at distinct wavelengths, and each component of the LHI-RC superassembly has a different inherent stability outside the lipid bilayer. The solubilization protocol outlined above therefore provides a multifaceted assessment of the efficacy of conventional detergents and novel amphiphiles. UV-Vis absorption spectroscopy data obtained at various stages of the protocol allow one to determine which protein components have degraded at these stages. […] The disruption potential was measured as the yield of superassembly extracted during solubilization (or, alternatively and more precisely, as the absence of superassembly in the pellet from the spin following solubilization).
The stabilizing propensity was determined from the spectra of the purified protein. An amphiphile was judged to be mild and stabilizing if it allowed the purification of fully intact LHI-RC superassembly (dominant absorption band at 875 nm). […] An amphiphile was judged to be of intermediate strength if it allowed for the purification of fully intact RC with damaged or missing LHI (dominant absorption at 800 nm with a shoulder at 875 nm; damaged LHI still bound to RC absorbs at 760 nm).
First, solubilization (illustrated in “STEP 1” of FIG. 12) denotes the ability of a surfactant to penetrate, integrate and disrupt a lipid bilayer.

Data set [4] can be described thus: Solubility in water / aqueous buffer. The settings on record: for solubility in water: without cosolvents/additives. Format: physicochemical.
The subject of a further data set is T1, LHI-RC superassembly.
T1 construct: Starting with protein complexes in their native lipid bilayer; made in house; host or cells: Rhodobacter capsulatus U43[pUHTM86Bgl], intracytoplasmic membranes (strain lacks LHII)
Kind of data set: Stability over time of solubilized, purified LHI-RC superassembly (A875/A680 ratio). Details: species or system Rhodobacter capsulatus. The settings on record: room temperature, 875 nm/680 nm absorption ratio over two to three weeks. The method, then:
FIG. 3. To monitor the ability of micelles of DDM, TPA-2, and MPA-2(C12) to stabilize membrane protein complexes, spectra of the protein purified by each detergent were recorded as a function of time. The initial spectrum (t=0) was acquired directly after elution of the protein from affinity chromatography. The integrity of the LHI-RC superassembly solubilized by these relatively mild detergents was monitored quantitatively from a scatter-corrected absorbance ratio (A875/A680). The ratio of a sample of completely folded and functional supperassembly is >14.5, and this ratio declines dramatically as the multi-subunit complex disassembles and denatures.
Stability was monitored by following the 875 nm/680 nm absorption ratio over a two to three weeks (absorption at 680 nm arises from oxidation of bacteriochlorophyll that has dissociated from LHI protein).
Similar criteria and protocols were used to judge the ability of amphiphiles to maintain solubilized and purified superassembly for extended periods. In this case, UV Vis-nearIR spectra were recorded at regular intervals. The degradation of the material could be monitored with the A875/A680 absorbance ratio, which decreased with time and sample integrity as the dominant 875 nm absorption of intact LHI disappeared and a 680 nm band appeared, indicating the presence of unbound, oxidized cofactors.

In the case of `O=S(=O)(O)CCN1CCN(CCS(=O)(=O)O)CC1` [PIPES, piperazine-N,N′-bis(2-ethanesulfonic acid)], in data set [1], the “pKa at 25° C.” value is 6.76 and the “Buffer Range” value was 6.1-7.5.

Take `O=S(=O)(O)CCNC(CO)(CO)CO` [TES, 2-{[tris(hydroxymethyl)methyl]amino}ethanesulfonic acid]: the “Buffer Range” value in data set [1] is on record as 6.8-8.2.

Take `O=S(=O)(O)CCCNC(CO)(CO)CO` [TAPS, 3-{[tris(hydroxymethyl)methyl]amino}propanesulfonic acid]: in data set [1], the “pKa at 25° C.” value was 8.43 and the “Buffer Range” value is reported as 7.7-9.1.

Turning to `O=C(O)CNC(CO)(CO)CO` [Tricine, N-tris(hydroxymethyl)methylglycine], the “Buffer Range” value in data set [1] was 7.4-8.8.

On to `CCCCCCCCCCCCC(=O)NC(CO[C@@H]1O[C@H](CO)[C@@H](O)[C@H](O)[C@H]1O)CO[C@@H]1O[C@H](CO)[C@@H](O)[C@H](O)[C@H]1O` [C12-MPA2], for which, in data set [2], the “critical micelle concentration (CMC)” value worked out at 2.4 mM, the “CMC” value amounted to 2.4 mM and the “CMC (%)” value is on record as 0.15%. Besides, the “yield of membrane protein complexes purified by affinity chromatography” value in data set [3] (after extraction from R. capsulatus membranes) is “far greater yield”. In addition, the “membrane protein complexes in the sample extracted” value in data set [3] (intracytoplasmic membranes of R. capsulatus) is about 30%. In addition, in data set [3], the “extraction of LHI-RC superassembly from R. capsulatus membranes” value (“extraction of LHI-RC superassembly” for short) is on record as “extracted a moderate amount of intact LHI-RC superassembly”.

For the compound `CCCCCCCCCCCCC(=O)NC(CO[C@@H]1O[C@H](CO)[C@@H](O[C@H]2O[C@H](CO)[C@@H](O)[C@H](O)[C@H]2O)[C@H](O)[C@H]1O)CO[C@@H]1O[C@H](CO)[C@@H](O[C@H]2O[C@H](CO)[C@@H](O)[C@H](O)[C@H]2O)[C@H](O)[C@H]1O` [MPA5], in data set [2], the “critical micelle concentration (CMC)” value came to 1.7 mM, the “CMC” value is given as 1.7 mM and the “CMC (%)” value is on record as 0.16%. In addition, in data set [3], the “extraction of LHI-RC superassembly” value is “did not extract any protein”.

With `CCCCCCCCCCCCC(=O)NCCO[C@@H]1O[C@H](CO)[C@@H](O)[C@H](O)[C@H]1O` [MPA1], the “Level (S/P solubilization rank and detergent strength)” value in data set [3] is listed as “insoluble”. In data set [4], the “solubility in aqueous buffer” value is on record as “not soluble in aqueous buffer” and the solubility in water result is on record as “not soluble in water without other additives”.

For `OCC1O[C@H](OCC23CC4CC(CC(C4)C2)C3)[C@H](O)C(O)[C@H]1O` (stereo partly drawn) [TPA 42], the “Level (S/P solubilization rank and detergent strength)” value in data set [3] is listed as “insoluble”.

Take `CCCCCCCCCCCCO[C@@H]1O[C@H](CO)[C@@H](O[C@H]2O[C@H](CO)[C@@H](O)[C@H](O)[C@H]2O)[C@H](O)[C@H]1O` [DDM, dodecyl-β-D-maltopyranoside, reference compound]: the “extraction of LHI-RC superassembly” value in data set [3] is “comparable to TPA-2 and TPA-2-S”. Besides, the “stability of solubilized LHI-RC superassembly” value in the data set with LHI-RC superassembly is recorded as “begins to degrade immediately”.

Take `OC[C@H]1O[C@@H](OCCC23CC4CC(CC(C4)C2)C3)[C@H](O)[C@@H](O)[C@@H]1O` [TPA 43]: the “Level (S/P solubilization rank and detergent strength)” value in data set [3] is reported as “insoluble”.

For `CCCCCCCCCCCCCCCCC(=O)NC(CO[C@@H]1O[C@H](CO)[C@@H](O)[C@H](O)[C@H]1O)CO[C@@H]1O[C@H](CO)[C@@H](O)[C@H](O)[C@H]1O` [C16-MPA2], in data set [3], the “Level (S/P solubilization rank and detergent strength)” value is listed as “insoluble”.

For `CCCCC(CCCC)(CC(=O)NCCO[C@@H]1O[C@H](CO)[C@@H](O[C@H]2O[C@H](CO)[C@@H](O)[C@H](O)[C@H]2O)[C@H](O)[C@H]1O)c1ccccc1` [TPA4], in data set [2], the “critical micelle concentration (CMC)” value came to 4.0 mM, the “CMC” value turned out to be 4 mM and the “CMC (%)” value is recorded as 0.25%. Further, the “extraction of LHI-RC superassembly” value in data set [3] is recorded as “extracts a significant proportion of the membrane-embedded protein”.

For `CCCCCCCCCCCCC(=O)NC(CO[C@@H]1O[C@H](CO)[C@@H](O)[C@H](O)[C@H]1O)(CO[C@@H]1O[C@H](CO)[C@@H](O)[C@H](O)[C@H]1O)CO[C@@H]1O[C@H](CO)[C@@H](O)[C@H](O)[C@H]1O` [MPA3], in data set [2], the “critical micelle concentration (CMC)” value is listed as 4.4 mM, the “CMC” value was found to be 4.4 mM and the “CMC (%)” value stood at 0.35%. Further, the “extraction of LHI-RC superassembly” value in data set [3] is reported as “did not extract any protein”.

With `CCCCC(CCCC)(CC(=O)NC(CO[C@H]1OC(CO)[C@H](O)C(O)[C@H]1O)CO[C@H]1OC(CO)[C@H](O)C(O)[C@H]1O)c1ccccc1` (stereo partly drawn) [TPA2], in data set [2], the “critical micelle concentration (CMC)” value is 3.6 mM, the “CMC” value is 3.6 mM and the “CMC (%)” value was 0.24%. In data set [3] (solubilized protein from R. capsulatus membranes), the “875 nm/760 nm absorption ratio” value was about 8. Further, the “extraction of LHI-RC superassembly” value in data set [3] is “intact LHI-RC superassembly in high yield”. For the same compound, the “stability of solubilized LHI-RC superassembly” value in the data set on LHI-RC superassembly is “remains stable for several days”.

`CCCCC(CCCC)(CC(=O)NC(CO[C@@H]1O[C@H](CO)[C@@H](O[C@H]2O[C@H](CO)[C@@H](O)[C@H](O)[C@H]2O)[C@H](O)[C@H]1O)CO[C@@H]1O[C@H](CO)[C@@H](O[C@H]2O[C@H](CO)[C@@H](O)[C@H](O)[C@H]2O)[C@H](O)[C@H]1O)c1ccccc1` [TPA5]: the “extraction of LHI-RC superassembly” value in data set [3] is “solubilized a small proportion of relatively intact LHI-RC superassembly”.

On to `CCCCC(CCCC)(CC(=O)NCCOC1OC(CO)C(O)C(O)C1O)c1ccccc1` (stereo not drawn) [TPA1], for which the “Level (S/P solubilization rank and detergent strength)” value in data set [3] is recorded as “insoluble”. Besides, in data set [4], the solubility in water entry is “not water-soluble without other cosolvents”.

For `NC(CO)(CO)CO` [Tris, tris(hydroxymethyl)methylamine], in data set [1], the “Buffer Range” value is reported as 7.5-9.0.

For `CCCCC(CCCC)(CC(=O)NC(COC1OC(CO)C(O)C(O)C1O)(COC1OC(CO)C(O)C(O)C1O)COC1OC(CO)C(O)C(O)C1O)c1ccccc1` (stereo not drawn) [TPA3], the “extraction of LHI-RC superassembly” value in data set [3] is on record as “no protein is extracted from the membrane”.

For the compound `O=S(=O)(O)CCCN1CCOCC1` [MOPS, 3-(N-morpholino)propanesulfonic acid], the “Buffer Range” value in data set [1] is recorded as 6.5-7.9.

On to `CCCCCCCCCCCCC(=O)NCCO[C@@H]1O[C@H](CO)[C@@H](O[C@H]2O[C@H](CO)[C@@H](O)[C@H](O)[C@H]2O)[C@H](O)[C@H]1O` [MPA4], for which the “Level (S/P solubilization rank and detergent strength)” value in data set [3] was “insoluble”. Moreover, in data set [4], the “solubility in aqueous buffer” value was “not soluble in aqueous buffer” and the solubility in water entry is listed as “not soluble in water without other additives”.

Consider `O=S(=O)(O)CCN1CCN(CCO)CC1` [HEPES, 4-2-hydroxyethyl-1-piperazineethanesulfonic acid], for which, in data set [1], the “Buffer Range” value is 6.8-8.2.
